# Laboratory results reported in PMC8879702, “Discovery of Small Molecule Activators of Chemokine Receptor CXCR4 That Improve Diabetic Wound Healing” (International Journal of Molecular Sciences, 2022).
# Tests used:
# Format in all cases: cell-based
# miR-29a = miR-29a expression in human diabetic fibroblasts (real time qPCR); settings: 24 h
# Procedure: An additional secondary screen was performed to further validate the activity of UCUF-728 as a selective CXCR4 receptor modulator. Human diabetic and non-diabetic fibroblasts were cultured with increasing concentrations of the compound. The cells were incubated for 24 h and then total cellular RNA was isolated to examine the ability of the compound to correct the abnormal expression of miR-15b, and miR-29a. We have shown that human diabetic skin has an increased miR-15b expression at the baseline compared to non-diabetic skin [7].
# CEM-CCRF cells (ATCC CCL-119) were cultured in growth media consisting of RPMI 1640 (Corning; Corning NY, USA) supplemented with 10% Fetal Bovine Serum (Corning; Corning, NY, USA), and 100 IU penicillin, […] streptomycin sulfate (Corning; Corning, NY, USA). Cells were maintained in suspension and subcultured twice weekly to maintain cell densities between 0.8 × 10^6 cells/mL and 2.5 × 10^6 cells/mL to maintain exponential growth phase. […]
# Total RNA was extracted with TRIzol reagent (Invitrogen, Carlsbad, CA, USA) according to the manufacturer’s established protocol. […] Quantitative PCR was performed on a BIO-RAD CFX96 according to the manufacturer’s instructions. Quantitative values of genes of interest are normalized based on U6. […]
# CEM-CCRF cells = assay: 96 wells transwell migration assay in CEM human lymphoblast cells
# From the text: Thus, to confirm CXCR4 functional activity, we evaluated UCUF-728 in a 96 wells transwell migration assay in CEM human lymphoblast cells. […] (Supplemental Figure S7). From the analog structure–activity relationship studies and characterization studies in the chemotaxis assay, cAMP signaling and CXCR4 binding assay, we identified UCUF-728 as a potent and functionally selective CXCR4 receptor modulator.
# CEM-CCRF (ATCC CCL-119) were suspended in RPMI 1640 (Corning; 10-040-CV) at 5.0 × 10^5 cells/mL and allowed to incubate in cell culture incubator at 37 °C with 5% CO2 for one hour. […] Following 1 h cell incubation and compound dispensing, 150 μL of RPMI 1640 supplemented with 2% Fetal Bovine Serum was added to each well of the compound receiver tray, and 50 μL of 5 × 10^5 cells/mL cell suspension in RPMI were added to each well of the top filter plate. Plates were reassembled and placed in a cell culture incubator at 37 °C with 5% CO2 for three hours. After incubation, Multi-Screen plate was disassembled and 100 μL of solution was collected from compound receiver tray and transferred to 96 well luminescent plate and an equal volume of ATPLite 1step luminescence reagent (Perkin Elmer, Waltham, MA, USA) was added to each well. Luminescence was measured using the CLARIOstar Plus (BMG LABTECH Inc., Cary, NC, USA).
# CXCR4 receptor = CXCR4 receptor (Homo sapiens, UniProt P61073); assay: cAMP signaling assay, forskolin-induced, PathHunter CHO-K1 CXCR4 cells; settings: CHO-K1 CXCR4 overexpressed cells
# Sequence of CXCR4 receptor (P61073 whole entry): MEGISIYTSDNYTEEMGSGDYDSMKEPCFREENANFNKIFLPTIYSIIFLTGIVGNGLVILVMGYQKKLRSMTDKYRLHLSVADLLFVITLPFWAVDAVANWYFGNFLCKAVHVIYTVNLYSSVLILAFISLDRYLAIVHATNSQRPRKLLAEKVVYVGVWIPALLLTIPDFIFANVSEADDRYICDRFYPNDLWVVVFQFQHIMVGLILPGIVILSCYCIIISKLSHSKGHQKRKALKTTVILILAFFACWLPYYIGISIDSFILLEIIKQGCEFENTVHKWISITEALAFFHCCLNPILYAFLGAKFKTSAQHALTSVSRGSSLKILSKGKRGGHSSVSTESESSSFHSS
# Procedure: The CXCR4 receptor is a G-protein coupled receptor (GPCR) coupled to the Gi class, whose primary role is inhibition of adenylate cyclase. We tested the ability of UCUF-728 to induce a Gi-mediated cAMP-inhibitory cellular response. […] (Figure 2B).
# Forskolin at final concentration of 0.5 mM was added to all wells using the TECAN dispenser. […] of PathHunter CHO-K1 CXCR4 cells (DiscoverX, Fremont, CA, USA) were added to compounds at 3000 cells/well, centrifuged at 1000 rpm for 30 s and incubated for 30 min at room temperature. DMSO (Sigma Aldrich, St. Louis, MO, USA) was normalized to 0.5%. […] of 4X Eu-cAMP tracer working solution were added to all wells, followed by addition of 5 μL of 4X Ulight-anti-cAMP working solution to all wells. Plates were centrifuged at 1000 rpm for 1 min and incubated for 1 h at room temperature, then read using CLARIOstar Plus (BMG LABTECH Inc., Cary, NC, USA) Lance CAMP protocol.
structure (smiles),measurement,setting,value
COc1ccc(OC)c(NS(=O)(=O)c2ccc(-c3cnc(C4CC4)o3)cc2)c1 [Compound 19],miR-29a expression,miR-29a,significant decrease in the miR-29a expression level
same,induction of cell migration,"CEM-CCRF cells; compound in lower channel, 3 h",induced migration with a similar EC50 and Emax as the B-arrestin recruitment activity
same,effect on SDF-1α-mediated migration response,CEM-CCRF cells; saturating concentrations of UCUF-728,potentiated
same,inhibition of forskolin-induced adenylate cyclase (cAMP signaling),CXCR4 receptor,did not inhibit forskolin-induced adenylate cyclase
